Results as given in patent US20250161329A1, “USE OF UV FILTERS FOR THE TREATMENT OF ACNE” (DSM IP ASSETS B.V., priority 2022, published 2025).

Legend:
[1] = tested on: Cutibacterium acnes ATCC 11827; test: In vitro UV model, survival of C. acnes after UV irradiation (96-well liquid model, plate counting); assay type: cell-based; conditions: for C. acnes relative protection by the UV filter(s) vs. vehicle control / C. acnes survival: UV 3 SED (UVA+UVB 30 mJ/cm^2), after 4 h, sample at 20% v/v; for C. acnes relative protection by the UV filter(s) vs. vehicle control: (sample survival - vehicle survival)/vehicle survival; for C. acnes survival: compared to untreated and non-irradiated control
Experimental: Accordingly, the inventors developed a targeted in vitro liquid model in 96-well microplate format to screen for UV protective actives (“UV filters”) on bacterial survival. The effects of selected UV irradiation conditions tested on microbial population of C. acnes and the commensal reference strain of Staphylococcus epidermidis in the presence of various UV filters and combinations thereof were evaluated with the evolution of the residual microbial population after 4 h. The inhibition of bacterial growth, as consequence of UV irradiation, was compared to that of the same strain without UV irradiation and was expressed in percentage of survival (%). The microbial strains used in this study are listed below and their cultures are reconstituted according to the direction of the supplier collection center of the reference strain, (ATCC American Type Culture Collection, USA): • Cutibacterium acnes ATCC 11827 • Staphylococcus epidermidis ATCC 12228 The 96-well plate was filled with the recommended culture media (140 μL) and a calibrated inoculum (20 μL) of each bacterial strain was added to reach […] colony forming units per milliliter (cfu/mL) final concentration. After contamination, the sample was added (40 μL; 20% v/v) in triplicate and was thoroughly mixed to ensure a homogeneous distribution. Then, the plate was submitted to UV stress through an UV irradiator system (BioSun, Vilber Lourmat, France) according to the UV doses presented Table 1 below. The specific UV dose selected was between 10 and 49% survival of the microbial population. The counting of C. acnes microbial population was performed by plating aliquots on the agar plates and was done in triplicate. The enumeration of grown C. acnes colonies was used to determine the decrease rate of microbial population. Controls performed during this experiment were the culture medium with bacteria incubated without UV stress. The microbial population counts were expressed in cfu/mL and were the average of experiment done in triplicate. The use level of the single UV filter and combinations in the test formulations was calculated to obtain a predicted in vitro SPF value of 5.75+/−0.15 and 23.45+/−0.65, respectively (Table 2). The UV filters were mixed in the two oils, Tegosoft XC (55%) and Miglyol 829 Eco (ad100%) and the emulsifier Tween 80 (5%). The effect of selected UV irradiation conditions on the survival of microbial population of C. acnes and S. epidermidis in the presence of the tested samples 1-10 at 20% v/v, was compared with the corresponding strain in the absence of samples 1-10 and without exposure to UV irradiation (control). The results after the 4-hour incubation were compared to the population of bacteria incubated without UV stress (determination of bacterial population survival) and were expressed in percentage of survival (%). The relative percentage of protection (%) was calculated from the difference between the survival percentages of samples and vehicle control (with UV irradiation) and divided to the survival percentage of the vehicle control. Consequently, the survival of each microbial population and the relative protection by the UV filter(s) were calculated and are summarized in the Table 2.

[2] = tested on: Staphylococcus epidermidis ATCC 12228; test: In vitro UV model, survival of S. epidermidis after UV irradiation (96-well liquid model, MPN method); assay type: cell-based
Experimental: Accordingly, the inventors developed a targeted in vitro liquid model in 96-well microplate format to screen for UV protective actives (“UV filters”) on bacterial survival. The effects of selected UV irradiation conditions tested on microbial population of C. acnes and the commensal reference strain of Staphylococcus epidermidis in the presence of various UV filters and combinations thereof were evaluated with the evolution of the residual microbial population after 4 h. The inhibition of bacterial growth, as consequence of UV irradiation, was compared to that of the same strain without UV irradiation and was expressed in percentage of survival (%). […] The use level of the single UV filter and combinations in the test formulations was calculated to obtain a predicted in vitro SPF value of 5.75+/−0.15 and 23.45+/−0.65, respectively (Table 2). […] The relative percentage of protection (%) was calculated from the difference between the survival percentages of samples and vehicle control (with UV irradiation) and divided to the survival percentage of the vehicle control. Consequently, the survival of each microbial population and the relative protection by the UV filter(s) were calculated and are summarized in the Table 2.

## CCCCC(CC)COC(=O)C(C#N)=C(c1ccccc1)c1ccccc1 (stereo not shown) [Inv. 1, Octocrylene]
[1]; C. acnes ATCC 11827, phylotype IA, upon UV irradiation
  effect on the population of C. acnes upon UV irradiation (in words): reduced the population of C. acnes
[1]
  C. acnes relative protection by the UV filter(s) vs. vehicle control: (−15) %
  C. acnes survival: 56%
[2]
  effect on the commensal bacterium S. epidermidis upon UV irradiation (in words): maintain or even propagating the commensal bacterium S. epidermidis

## CCCCC(CC)COC(=O)c1ccc(Nc2nc(Nc3ccc(C(=O)OCC(CC)CCCC)cc3)nc(Nc3ccc(C(=O)OCC(CC)CCCC)cc3)n2)cc1 (stereo not shown) [Ref. 1, Ethylhexyl Triazone, reference compound]
[1]
  C. acnes relative protection by the UV filter(s) vs. vehicle control: (+40) %
  C. acnes survival: 92%

## CCCCC(CC)COC(=O)c1ccccc1O (stereo not shown) [Inv. 2, Ethylhexyl Salicylate]
[1]
  C. acnes relative protection by the UV filter(s) vs. vehicle control: (−30) %
  C. acnes survival: 46%

## CCCCC(CC)COc1ccc(-c2nc(-c3ccc(OC)cc3)nc(-c3ccc(OCC(CC)CCCC)cc3O)n2)c(O)c1 (stereo not shown) [Ref. 2, Bis-Ethylhexyloxyphenol Methoxyphenyl Triazine, reference compound]
[1]
  C. acnes relative protection by the UV filter(s) vs. vehicle control: (+13) %
  C. acnes survival: 74%
